Results as given in PubChem BioAssay (NCI).
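Tested at 5 concentrations; 48 h exposure; 96-well plates; endpoints linearly interpolated, else capped at highest concentration. GI50: concentration for 50% inhibition of growth. TGI: total growth inhibition.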

Experiments:
Assay in all cases: growth of human tumour cells (NCI), 48 h
[1] = system: 786-0 renal
[2] = system: A498 renal
[3] = system: A549 NSCLC
[4] = system: ACHN renal
[5] = system: BT-549 breast
[6] = system: CAKI-1 renal
[7] = system: CCRF-CEM leukemia
[8] = system: COLO 205 colon
[9] = system: DU-145 prostate
[10] = system: EKVX NSCLC
[11] = system: HCC-2998 colon
[12] = system: HCT-116 colon
[13] = system: HCT-15 colon
[14] = system: HL-60(TB) leukemia
[15] = system: HOP-62 NSCLC
[16] = system: HOP-92 NSCLC
[17] = system: HS 578T breast
[18] = system: HT29 colon
[19] = system: IGROV1 ovarian
[20] = system: K-562 leukemia
[21] = system: KM12 colon
[22] = system: LOX IMVI melanoma
[23] = system: M14 melanoma
[24] = system: MCF7 breast
[25] = system: MDA-MB-231 breast
[26] = system: MDA-MB-435
[27] = system: MOLT-4 leukemia
[28] = system: NCI-H226 lung
[29] = system: NCI-H23 lung
[30] = system: NCI-H460 lung
[31] = system: NCI-H522 lung
[32] = system: NCI/ADR-RES ovarian
[33] = system: OVCAR-3 ovarian
[34] = system: OVCAR-4 ovarian
[35] = system: OVCAR-5 ovarian
[36] = system: OVCAR-8 ovarian
[37] = system: PC-3 prostate
[38] = system: RPMI-8226 leukemia
[39] = system: RXF 393 renal
[40] = system: SF-268 CNS
[41] = system: SF-295 CNS
[42] = system: SF-539 CNS
[43] = system: SK-MEL-2 melanoma
[44] = system: SK-MEL-28 melanoma
[45] = system: SK-MEL-5 melanoma
[46] = system: SK-OV-3 ovarian
[47] = system: SN12C renal
[48] = system: SNB-19 CNS
[49] = system: SNB-75 CNS
[50] = system: SR leukemia
[51] = system: SW-620 colon
[52] = system: TK-10 renal
[53] = system: U251 CNS
[54] = system: UACC-257 melanoma
[55] = system: UACC-62 melanoma
[56] = system: UO-31 renal

Question: With CCCn1cnc2c(c1=N)C(c1ccc(F)cc1)c1sc3c(CC)cccc3c1O2 (stereo unspecified) as the compound, how does the GI50 [1] read?
Answer: 443 nM

Question: And the TGI [1]?
Answer: > 89.2 µM

Question: And the GI50 [2]?
Answer: 79.9 nM

Question: What about the TGI [2] of the same compound?
Answer: 1040 nM

Question: And the GI50 [3]?
Answer: 236 nM

Question: And the TGI [3]?
Answer: > 90.7 µM

Question: And the GI50 [4]?
Answer: 133 nM

Question: And the TGI [4]?
Answer: 49.9 µM

Question: What about the GI50 [5] of the same compound?
Answer: 1990 nM

Question: And the TGI [5]?
Answer: 19.1 µM

Question: What about the GI50 [6] of the same compound?
Answer: 62.1 nM

Question: And the TGI [6]?
Answer: 18.3 µM

Question: And the GI50 [7]?
Answer: 314 nM

Question: What about the TGI [7] of the same compound?
Answer: > 67.9 µM

Question: What about the GI50 [8] of the same compound?
Answer: 354 nM

Question: What about the TGI [8] of the same compound?
Answer: 1950 nM

Question: What about the GI50 [9] of the same compound?
Answer: 309 nM

Question: And the TGI [9]?
Answer: 15.3 µM

Question: And the GI50 [10]?
Answer: 481 nM

Question: What about the TGI [10] of the same compound?
Answer: > 100 µM

Question: And the GI50 [11]?
Answer: 337 nM

Question: What about the TGI [11] of the same compound?
Answer: 38.7 µM

Question: What about the GI50 [12] of the same compound?
Answer: 263 nM

Question: What about the TGI [12] of the same compound?
Answer: 4.77 µM

Question: And the GI50 [13]?
Answer: 179 nM

Question: And the TGI [13]?
Answer: > 100 µM

Question: What about the GI50 [14] of the same compound?
Answer: 243 nM

Question: And the TGI [14]?
Answer: 1080 nM

Question: And the GI50 [15]?
Answer: 423 nM

Question: What about the TGI [15] of the same compound?
Answer: 29.7 µM

Question: What about the GI50 [16] of the same compound?
Answer: 53.8 nM

Question: And the TGI [16]?
Answer: 4.19 µM

Question: What about the GI50 [17] of the same compound?
Answer: 86.4 nM

Question: What about the TGI [17] of the same compound?
Answer: > 88 µM

Question: And the GI50 [18]?
Answer: 302 nM

Question: What about the TGI [18] of the same compound?
Answer: 27.3 µM

Question: And the GI50 [19]?
Answer: 176 nM

Question: And the TGI [19]?
Answer: 24 µM

Question: And the GI50 [20]?
Answer: 58.3 nM

Question: And the TGI [20]?
Answer: > 100 µM

Question: And the GI50 [21]?
Answer: 275 nM

Question: What about the TGI [21] of the same compound?
Answer: > 42.3 µM

Question: What about the GI50 [22] of the same compound?
Answer: 40.4 nM

Question: What about the TGI [22] of the same compound?
Answer: 31.3 µM

Question: And the GI50 [23]?
Answer: 182 nM

Question: And the TGI [23]?
Answer: 33.6 µM

Question: What about the GI50 [24] of the same compound?
Answer: 24.7 nM

Question: And the TGI [24]?
Answer: > 100 µM

Question: What about the GI50 [25] of the same compound?
Answer: 325 nM

Question: And the TGI [25]?
Answer: > 62.3 µM

Question: What about the GI50 [26] of the same compound?
Answer: 23.9 nM

Question: What about the TGI [26] of the same compound?
Answer: 60 nM

Question: What about the GI50 [27] of the same compound?
Answer: 434 nM

Question: And the TGI [27]?
Answer: > 100 µM

Question: And the GI50 [28]?
Answer: 395 nM

Question: And the GI50 [29]?
Answer: 138 nM

Question: What about the TGI [29] of the same compound?
Answer: 19.3 µM

Question: And the GI50 [30]?
Answer: 211 nM

Question: And the TGI [30]?
Answer: 13.9 µM

Question: What about the GI50 [31] of the same compound?
Answer: 35.9 nM

Question: And the TGI [31]?
Answer: 8.08 µM

Question: And the GI50 [32]?
Answer: 50.1 nM

Question: And the TGI [32]?
Answer: 26.4 µM

Question: And the GI50 [33]?
Answer: 68 nM

Question: What about the TGI [33] of the same compound?
Answer: 7.68 µM

Question: And the GI50 [34]?
Answer: 336 nM

Question: And the TGI [34]?
Answer: > 100 µM

Question: What about the GI50 [35] of the same compound?
Answer: 493 nM

Question: And the TGI [35]?
Answer: > 100 µM

Question: What about the GI50 [36] of the same compound?
Answer: 434 nM

Question: What about the TGI [36] of the same compound?
Answer: > 100 µM

Question: What about the GI50 [37] of the same compound?
Answer: 79.8 nM

Question: And the TGI [37]?
Answer: > 51.4 µM

Question: What about the GI50 [38] of the same compound?
Answer: 200 nM

Question: What about the TGI [38] of the same compound?
Answer: > 22.9 µM

Question: What about the GI50 [39] of the same compound?
Answer: 29.4 nM

Question: And the TGI [39]?
Answer: 130 nM

Question: And the GI50 [40]?
Answer: 241 nM

Question: What about the TGI [40] of the same compound?
Answer: > 100 µM

Question: And the GI50 [41]?
Answer: 47.8 nM

Question: What about the TGI [41] of the same compound?
Answer: > 47.9 µM

Question: And the GI50 [42]?
Answer: 94.9 nM

Question: And the TGI [42]?
Answer: 815 nM

Question: And the GI50 [43]?
Answer: 7.57 µM

Question: What about the TGI [43] of the same compound?
Answer: > 100 µM

Question: What about the GI50 [44] of the same compound?
Answer: 8.9 µM

Question: And the TGI [44]?
Answer: > 100 µM

Question: What about the GI50 [45] of the same compound?
Answer: 99.8 nM

Question: What about the TGI [45] of the same compound?
Answer: 1200 nM

Question: And the GI50 [46]?
Answer: 1210 nM

Question: And the TGI [46]?
Answer: 35 µM

Question: What about the GI50 [47] of the same compound?
Answer: 398 nM

Question: What about the TGI [47] of the same compound?
Answer: 22.5 µM

Question: And the GI50 [48]?
Answer: 273 nM

Question: What about the TGI [48] of the same compound?
Answer: 49.4 µM

Question: What about the GI50 [49] of the same compound?
Answer: 35.3 nM

Question: And the TGI [49]?
Answer: 36.5 µM

Question: And the GI50 [50]?
Answer: 117 nM

Question: What about the TGI [50] of the same compound?
Answer: > 42.3 µM

Question: And the GI50 [51]?
Answer: 237 nM

Question: And the TGI [51]?
Answer: > 100 µM

Question: And the GI50 [52]?
Answer: 19.4 µM

Question: What about the TGI [52] of the same compound?
Answer: > 100 µM

Question: What about the GI50 [53] of the same compound?
Answer: 273 nM

Question: And the TGI [53]?
Answer: > 40.6 µM

Question: What about the GI50 [54] of the same compound?
Answer: 27.5 µM

Question: And the TGI [54]?
Answer: > 100 µM

Question: And the GI50 [55]?
Answer: 38 nM

Question: And the TGI [55]?
Answer: 29 µM

Question: What about the GI50 [56] of the same compound?
Answer: 81.3 nM

Question: And the TGI [56]?
Answer: > 100 µM
